These results are taken from patent US20260167622A1, “PAN-KRAS DEGRADING AGENT, AND PREPARATION METHOD THEREFOR AND USE THEREOF” (LEADINGTAC PHARMACEUTICAL (SHAOXING) CO., LTD., priority 2022, published 2026).

Holding throughout (assay type): cell-based
Assay [1] concerns the target T1, KRAS G12V protein in SW620 cells (Homo sapiens, UniProt P01116, G12V).
T1 construct: endogenous in cells; host or cells: SW620
Description: KRAS degradation assay (Western Blot) in SW620 cells. Particulars: for DC50: 24 h; for Dmax: SW-620, 24 h. An outline of the steps:
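After a 24 h treatment spanning 0.03–3000 nM, remaining KRAS protein is quantified by ECL immunoblot against a β-actin internal reference. Degradation is expressed relative to vehicle-treated cells and curve-fitted for DC50 and Dmax.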

For assay [2], the target named is T2, KRAS WT (expanded) protein in MKN1 cells (Homo sapiens, UniProt P01116).
T2 construct: endogenous in cells; host or cells: MKN1 (MKN-1)
T2 sequence (P01116 1-188 isoform P01116-2): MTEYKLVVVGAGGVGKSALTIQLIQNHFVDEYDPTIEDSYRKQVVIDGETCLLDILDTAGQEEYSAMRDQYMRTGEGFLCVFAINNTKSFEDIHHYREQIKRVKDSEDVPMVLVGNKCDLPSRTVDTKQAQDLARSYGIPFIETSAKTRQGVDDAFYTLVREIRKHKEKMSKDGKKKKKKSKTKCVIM
The assay can be described thus: KRAS degradation assay (Western Blot) in MKN1 cells. The following applies: for DC50: 24 h; for Dmax: MKN-1, 24 h. The source says: (§1) Test Example 5: KRAS G12C, KRAS G12D, KRAS G12V, KRAS G13D, and KRAS WT (Expanded) Degradation Assays
(§2) The degradation effect of the compounds on KRAS was investigated on KRAS G12C mutant human non-small cell lung cancer cell NCI-H358, KRAS G12D mutant human metastatic pancreatic cancer cell AsPc-1, KRAS G12D mutant human lung cancer cell A427, KRAS G12V mutant human colorectal cancer cell SW620, KRAS G12V mutant human lung cancer cell SW900, KRAS G13D mutant human colorectal cancer epithelial cell DLD-1, and KRAS WT human gastric cancer cell MKN-1. The specific procedures were as follows: 0.95 mL of cells were seeded into each well of a 24-well cell culture plate to achieve a cell density of 5×10^5 cells/well; and the cell plate was incubated in an incubator at 37° C. with 5% CO2 overnight. Then 50 μL of the compound solution after dilution was added to each of the wells with the corresponding cells, so that the final concentration of the compound was in a range of 0.03-3000 nM. The final concentration of DMSO was 0.25%. After the compounds were added, the cell plate was incubated in an incubator at 37° C. with 5% CO2 for 24 h. The culture medium in the 24-well cell culture plate was then removed, and the plate was washed twice with 1×PBS (KeyGEN). 120 μL of RIPA (strong) lysis buffer (Beyotime) (supplemented with 1 mM phenylmethylsulfonyl fluoride, a protease inhibitor mixture (Beyotime), and a protease phosphatase inhibitor mixture (Beyotime)) was added to lyse adherent SW900 cells at the bottom of the cell culture plate. After the plate was left to stand on ice for 30 min, the protein lysate in each well was transferred to a 1.5 mL centrifuge tube and centrifuged at 15000 g for 20 min at 4° C. The cell lysate supernatants after centrifugation were cryopreserved in a refrigerator at −80° C. for later use.
(§3) After the samples of the cell lysate supernatants that had been prepared were thawed from the refrigerator at −80° C., the total protein concentrations of the cell lysates were determined using a BCA protein quantification kit (Tiangen). The total protein concentrations of the samples were then adjusted to 0.5 μg/μL with PBS and 5×SDS-PAGE protein loading buffer (Beyotime), and the samples were incubated in a water bath at 100° C. for 15 min. The samples were then incubated in an ice bath for 5 min and centrifuged at 14000 g for 1 min at 4° C., and the supernatants were mixed well as loading samples for the Western Blot assay. The samples were loaded into wells of a 10% precast gel (KeyGEN) with a loading volume of 10 μL (total protein: 5 μg), a sufficient Tris-MOPS-SDS running buffer (Adamas) was added, and then electrophoresis was performed at a constant voltage of 120 V for 55 min. After the electrophoresis, the proteins on the gel were transferred to PVDF membranes at a constant current of 250 mA for 55 min. After the membrane transfer, the PVDF membranes were incubated in 1× Quick Block blocking buffer (Beyotime)at room temperature for 30 min. After the blocking, the PVDF membranes were separately incubated at 4° C. overnight with the KRAS antibody (Abcam) diluted in a ratio of 1:1000 and the β-actin antibody (Abcam) diluted in a ratio of 1:2000 in 5% BSA as the diluent, and then washed with 1×TBST buffer (2.4 g of Tris, 8.8 g of NaCl, 1.5 mL of Tween 20, with pH adjusted to 7.4, with the volume brought to 1 L) 3 times for 10 min/time. The membranes were incubated with a secondary antibody (Abcam) diluted in 5% BSA at room temperature for 2 h, and then washed with 1×TBST buffer 3 times for 10 min/time. Finally, the membranes were incubated with Clarity Western ECL Substrate (BIO-RAD) for 5 min for luminescence and color development, and a ChemiScope 6200 Touch chemiluminescence imaging system (Clinx) was used for color development and protein mapping. Gray value analysis of the protein maps was performed using the chemiluminescence analysis software (Clinx). […]

Assay [3] relates to KRAS WT human gastric cancer cell MKN1. The assay can be described thus: 3D cell proliferation inhibition assay, MKN1. The following applies: MKN-1, 168 h, 3D culture, 7 days, CTG. An outline of the steps:
(§4)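 Cells were seeded in low-adsorption 96-well plates at 5×10^2 cells/well (MKN1 at 1×10^3) with compounds at final 10000-0.026 nM, 0.2% DMSO, and grown 7 days at 37° C. CTG luminescence gave inhibition relative to DMSO and medium-only controls, and IC50 came from a log-concentration curve fit.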

Assay [4] concerns KRAS G13D mutant human colorectal cancer epithelial cell DLD-1. The assay can be described thus: 3D cell proliferation inhibition assay, DLD-1. The following applies: DLD-1, 168 h, 3D culture, 7 days, CTG. An outline of the steps: as §4
In assay [5] the test system is KRAS G12C mutant human non-small cell lung cancer cell NCI-H358. Description: 3D cell proliferation inhibition assay, NCI-H358. The following applies: NCI-H358, 168 h, 3D culture, 7 days, CTG. An outline of the steps:
as §4

The test system of assay [6] is KRAS G12D mutant human metastatic pancreatic cancer cell AsPc-1. Description: 3D cell proliferation inhibition assay, AsPc-1. The following applies: ASPC1, 168 h, 3D culture, 7 days, CTG. An outline of the steps:
as §4

Assay [7] has as its system KRAS G12V mutant human colorectal cancer cell SW620. The assay can be described thus: 3D cell proliferation inhibition assay, SW620. The following applies: SW-620, 168 h, 3D culture, 7 days, CTG. An outline of the steps:
as §4

The target in assay [8] is T3, KRAS G13D protein in DLD-1 cells (Homo sapiens, UniProt P01116, G13D).
T3 construct: endogenous in cells; host or cells: DLD-1
T3 sequence (P01116 1-188 isoform P01116-2 G13D): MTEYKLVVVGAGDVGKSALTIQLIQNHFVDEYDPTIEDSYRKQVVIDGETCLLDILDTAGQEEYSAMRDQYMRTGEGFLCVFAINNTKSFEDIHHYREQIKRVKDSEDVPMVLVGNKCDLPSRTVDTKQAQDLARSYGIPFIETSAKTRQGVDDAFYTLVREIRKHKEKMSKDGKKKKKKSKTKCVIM
Description: KRAS degradation assay (Western Blot) in DLD-1 cells. Particulars: 24 h.
Excerpt: as §1, §2, §3

For assay [9], the target named is T4, KRAS G12C protein in NCI-H358 cells (Homo sapiens, UniProt P01116, G12C).
T4 construct: endogenous in cells; host or cells: NCI-H358
T4 sequence (P01116 1-188 isoform P01116-2 G12C): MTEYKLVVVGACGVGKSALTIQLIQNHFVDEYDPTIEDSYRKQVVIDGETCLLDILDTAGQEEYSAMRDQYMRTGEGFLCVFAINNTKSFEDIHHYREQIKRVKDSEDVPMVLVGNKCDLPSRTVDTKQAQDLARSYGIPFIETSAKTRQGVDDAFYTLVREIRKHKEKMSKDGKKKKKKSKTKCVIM
Description: KRAS degradation assay (Western Blot) in NCI-H358 cells. Particulars: 24 h.
Excerpt: as §1, §2, §3

Assay [10] concerns the target T5, KRAS G12D protein in AsPc-1 cells (Homo sapiens, UniProt P01116, G12D).
T5 construct: endogenous in cells; host or cells: AsPc-1
Description: KRAS degradation assay (Western Blot) in AsPc-1 cells. The following applies: for DC50: 24 h; for Dmax: ASPC1, 24 h.
Excerpt: as §1, §2, §3

T5 sequence (P01116 1-188 isoform P01116-2 G12D): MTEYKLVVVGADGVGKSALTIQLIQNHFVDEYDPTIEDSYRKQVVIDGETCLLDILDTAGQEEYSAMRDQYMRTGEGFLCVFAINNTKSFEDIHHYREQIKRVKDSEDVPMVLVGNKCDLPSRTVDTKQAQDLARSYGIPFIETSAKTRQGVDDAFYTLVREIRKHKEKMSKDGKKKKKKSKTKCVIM
T1 sequence (P01116 1-188 isoform P01116-2 G12V): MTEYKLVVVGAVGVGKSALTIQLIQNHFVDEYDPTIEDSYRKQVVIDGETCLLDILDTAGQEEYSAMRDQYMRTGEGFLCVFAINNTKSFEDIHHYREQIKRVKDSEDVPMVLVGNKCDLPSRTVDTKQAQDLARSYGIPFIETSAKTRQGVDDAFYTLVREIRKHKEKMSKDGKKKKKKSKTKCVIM

Consider `[2H]C([2H])([2H])c1ccc(C(=O)N2CCC3(CCC(CN4CCN(CC5(COc6nc(N7CCC[C@@](C)(O)C7)c7cnc(-c8cc(O)cc9ccc(F)c(C#C)c89)c(F)c7n6)CC5)CC4)CC3)CC2)cc1N1CCC(=O)NC1=O` [Example 111, (R)-1-(5-(9-((4-((1-(((7-(8-ethynyl-7-fluoro-3-hydroxynaphthalen-1-yl)-8-fluoro-4-(3-hydroxy-3-methylpiperidin-1-yl)pyrido[4,3-d]pyrimidin-2-yl)oxy)methyl)cyclopropyl)methyl)piperazin-1-yl)methyl)-3-azaspiro[5.5]undecane-3-carbonyl)-2-(methyl-d3)phenyl)dihydropyrimidine-2,4(1H,3H)-dione], for which the results for the half-maximal degradation concentration (DC50) in assay [1], in [2] and in assay [8] were 1.65 nM, 0.69 nM and 6.78 nM, respectively. The Dmax in assay [1] came out at 100%; in assay [2] it was 99.9%; in assay [8], 99.3%. The IC50 in assay [3] is 2.15 nM; in [4] it was 5.88 nM; in [5] it was 2.5 nM; in [6], 4.68 nM; in [7], 1.12 nM.
Consider `[2H]C([2H])([2H])c1ccc(C(=O)N2CCC3(CCC(CN4CCN(C[C@@H](C)COc5nc(N6CCC[C@@](C)(O)C6)c6cnc(-c7cc(O)cc8ccc(F)c(C#C)c78)c(F)c6n5)CC4)CC3)CC2)cc1N1CCC(=O)NC1=O` [Example 132, 1-(5-(9-((4-((R)-3-((7-(8-ethynyl-7-fluoro-3-hydroxynaphthalen-1-yl)-8-fluoro-4-((R)-3-hydroxy-3-methylpiperidin-1-yl)pyrido[4,3-d]pyrimidin-2-yl)oxy)-2-methylpropyl)piperazin-1-yl)methyl)-3-azaspiro[5.5]undecane-3-carbonyl)-2-(methyl-d3)phenyl)dihydropyrimidine-2,4(1H,3H)-dione], for which the DC50 in [1] was determined as 2.42 nM; in assay [9], 1.37 nM; in assay [8] it was 5.6 nM; in [10], 25.2 nM. The greatest degradation seen (Dmax) in assay [1] was 100%; in [9], 100%; in assay [8] it was 100%; in assay [10] it was 95.3%. The half-inhibitory concentration (IC50) in assay [3] came to 4.31 nM; in assay [4], 7.7 nM; in [5], 6.2 nM; in assay [6] it was 9.75 nM; in assay [7], 0.43 nM.
Turning to `C#Cc1c(F)ccc2cc(O)cc(-c3ncc4c(N5CCC[C@@](C)(O)C5)nc(OC[C@H](C)CN5CCN(CC6CCC7(CC6)CCN(C(=O)c6ccc(Cl)c(N8CCC(=O)NC8=O)c6)CC7)CC5)nc4c3F)c12` [Example 48, 1-(2-chloro-5-(9-((4-((R)-3-((7-(8-ethynyl-7-fluoro-3-hydroxynaphthalen-1-yl)-8-fluoro-4-((R)-3-hydroxy-3-methylpiperidin-1-yl)pyrido[4,3-d]pyrimidin-2-yl)oxy)-2-methylpropyl)piperazin-1-yl)methyl)-3-azaspiro[5.5]undecane-3-carbonyl)phenyl)dihydropyrimidine-2,4(1H,3H)-dione], the DC50 in [1] came out at 1.02 nM; in assay [2], 2.33 nM; in assay [9] it was 17.2 nM; in assay [8] it was 1.34 nM. Also, the Dmax in assay [1], in assay [2], in assay [9] and in assay [8] was 100% each time. Also, the half-inhibitory concentration (IC50) in assay [3] turned out to be 21.2 nM; in assay [4] it was 2.61 nM; in assay [5], 85.5 nM; in [6] it was 23.2 nM; in assay [7], 5.17 nM.
Turning to `C#Cc1c(F)ccc2cc(O)cc(-c3ncc4c(N(C)[C@H]5C[C@@H]5F)nc(OC[C@H](C)CN5CCN(CC6CCC7(CC6)CCN(C(=O)c6ccc(OC)c(N8CCC(=O)NC8=O)c6)CC7)CC5)nc4c3F)c12` [Example 50, 1-(5-(9-((4-((R)-3-((7-(8-ethynyl-7-fluoro-3-hydroxynaphthalen-1-yl)-8-fluoro-4-(((1S,2S)-2-fluorocyclopropyl)(methyl)amino)pyrido[4,3-d]pyrimidin-2-yl)oxy)-2-methylpropyl)piperazin-1-yl)methyl)-3-azaspiro[5.5]undecane-3-carbonyl)-2-methoxyphenyl)dihydropyrimidine-2,4(1H,3H)-dione], the DC50 was determined as 3.22 nM in [1], 21.6 nM in [9], 3.98 nM in assay [8] and 167 nM in [10]. The Dmax was determined as 99.4% in assay [1], 96.3% in assay [9], 98% in [8] and 77.1% in assay [10]. The IC50 in [3] was 23.7 nM; in assay [4] it was 90.9 nM; in assay [5], 46.7 nM; in assay [6] it was 157 nM; in assay [7], 3.73 nM.
`C#Cc1c(F)ccc2cc(O)cc(-c3ncc4c(N5CCC[C@@](C)(O)C5)nc(OCC5(CN6CCN(CC7CCC8(CC7)CCN(C(=O)c7ccc(CC)c(N9CCC(=O)NC9=O)c7)CC8)CC6)CC5)nc4c3F)c12` [Example 92, (R)-1-(2-ethyl-5-(9-((4-((1-(((7-(8-ethynyl-7-fluoro-3-hydroxynaphthalen-1-yl)-8-fluoro-4-(3-hydroxy-3-methylpiperidin-1-yl)pyrido[4,3-d]pyrimidin-2-yl)oxy)methyl)cyclopropyl)methyl)piperazin-1-yl)methyl)-3-azaspiro[5.5]undecane-3-carbonyl)phenyl)dihydropyrimidine-2,4(1H,3H)-dione]: the DC50 came out at 1.34 nM in [1] and 0.42 nM in assay [2]. The Dmax in [1] worked out at 100%; in assay [2], 99%. Further, the IC50 in [3] was determined as 447 nM; in [4], 2.26 nM; in [5] it was 19.3 nM; in assay [6], 6.75 nM; in assay [7], 1.31 nM.
